# According to patent US8847018B2, “Plants tolerant to HPPD inhibitor herbicides” (Bayer CropScience AG, priority 2009, dated 2014):
# “And” between values parts separate entries of the source, which are not always exact repeats. Identical values can stand only once.
# What was measured:
# [1] = tested on: Rhodococcus HPPD SEQ ID No. 5 (FMP22e); test: biochemical; assay type: biochemical, Rhodococcus sp. (strain RHA1), isolate ro03041; details: SEQ ID No. 5
# [2] = tested on: T0 tobacco plants containing FMP23t; test: Response of T0 tobacco plants to tembotrione; assay type: in vivo, Nicotiana tabacum; details: 100 g AI/ha, two weeks after treatment
# Procedure: (§1) As an example, rooted plants containing the T-DNA PromCaMV35S-OTP-HIS6-FMP22t-TerCaMV35S or containing the T-DNA PromCaMV35S-OTP-HIS6-FMP23t-TerCaMV35S, are transferred to the greenhouse under standard growth conditions. Following a period of acclimation of two weeks, the T0 plants are treated with a mixture containing 100 g tembotrione/ha prepared from a WP20 (wettable powder 20%) formulation supplemented with ammonium sulfate and methyl ester raps oil.
# (§2) Two weeks after the treatment, the symptoms due to the application of the herbicides are evaluated. The plants are classified in four categories. The treated plants evaluated as “0” are looking like the untreated tobacco plants. The plants evaluated as “1” display temporarily light bleaching phenotype due to the application of the herbicides. The plants evaluated as “2” display permanent light to strong bleaching symptoms. Finally the plants evalutated as “3” are looking like wild type tobacco plants submitted to the same treatment.
# [3] = tested on: T0 tobacco plants containing FMP22t; test: Response of T0 tobacco plants to tembotrione; assay type: in vivo, Nicotiana tabacum; details: 100 g AI/ha, two weeks after treatment
# Procedure: as §1, §2
# [4] = tested on: tobacco plants containing FMP23e (HPPD FMP23); test: Glasshouse trial, herbicidal damage on T1 tobacco; assay type: in vivo, Nicotiana tabacum; details: 7 DAT, 100 g AI/ha spray; FMP23e line 188, single T1 plants
# Procedure: T0 Tobacco plants containing either the gene from Arabidopsis coding for HPPD or the gene FMP22e from Rhodococcus sp. (strain RHA1), isolate ro03041 coding for FMP22 HPPD, or the gene FMP23e from Rhodococcus sp. (strain RHA1), isolate ro02040 mentioned above (Example 3), were transferred to the glasshouse (28/20° C.), to develop further and produce seeds. Those seeds were harvested and put on soil (ED73 mixed with sand and osmocote Pro) to germinate in the glasshouse (28/20° C.). Three to four weeks later, plantlets were transferred to single pots containing the soil mentioned above. Two weeks later, plants of a size 4-6 cm diameter were sprayed with either • tembotrione at 100 gAl/ha prepared from a WP20 (wettable powder 20%) formulation supplemented with ammonium sulfate and methyl ester raps oil, or • isoxaflutole at 100 gAl/ha prepared from a WP20 formulation supplemented with ammonium sulfate and methyl ester raps oil, or • bicyclopyrone at 100 gAl/ha prepared from a WP20 formulation supplemented with ammonium sulfate and methyl ester raps oil, or • “blind formulation” made from a WP20 formulation without active ingredient (Al) supplemented with ammonium sulfate and methyl ester raps oil, and were then transferred to a growth chamber with adequate light conditions (20000 Lux).
# [5] = molecular target: T1, Arabidopsis thaliana HPPD SEQ ID No. 10 (Arabidopsis thaliana, UniProt P93836); test: HPLC assay of HPPD in vitro kinetic properties
# T1 sequence (P93836 with tags, fused parts or gaps): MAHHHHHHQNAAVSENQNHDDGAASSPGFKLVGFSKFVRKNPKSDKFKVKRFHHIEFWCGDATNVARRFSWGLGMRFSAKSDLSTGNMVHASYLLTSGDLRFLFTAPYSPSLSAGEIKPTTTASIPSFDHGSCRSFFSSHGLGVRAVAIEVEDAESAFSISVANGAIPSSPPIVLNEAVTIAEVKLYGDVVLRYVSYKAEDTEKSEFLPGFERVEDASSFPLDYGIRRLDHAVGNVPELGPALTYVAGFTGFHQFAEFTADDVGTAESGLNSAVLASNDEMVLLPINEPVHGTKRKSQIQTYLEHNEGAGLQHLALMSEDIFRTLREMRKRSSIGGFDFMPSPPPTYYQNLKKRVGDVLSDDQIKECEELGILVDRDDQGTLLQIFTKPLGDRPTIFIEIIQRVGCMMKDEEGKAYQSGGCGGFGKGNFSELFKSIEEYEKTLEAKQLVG
# Procedure: All assays were started by the addition of HPPD enzyme to the assay mixture and stopped at a series of times between 0 and 240 s by addition of 200 μl of the reaction mixture to reaction assay tubes containing 20 μl 10% perchloric acid. Precipitated protein was pelleted by a 5 minute centrifugation at 10,000 g. […] For Km and Vmax value determinations the initial rates of the HPPD reaction at different substrate concentrations were determined from plots of HGA formed versus time and fitted to the Michaelis-Menten equation for unireactant enzymes using the ID Business Solutions Ltd. (idbs.com) XLfit software suite.
# [6] = tested on: rice shoots containing FMP23e; test: Bleaching of rice shoots on MS/2 with tembotrione; assay type: cell-based; details: 2 weeks
# Procedure: (§3) Rice transformation is achieved using methods well known in the art. Briefly, the Agrobacterium tumefaciens mediated transformation of rice was performed using immature embryos, from the restorer line 6G4317. Briefly, panicles from donor plants were harvested 8-12 days after pollination. The lemma of the immature seed was removed. Seeds were thereafter sterilized using a NaOCl based solution and Tween. The seeds were preinduced with […]. Agrobacterium tumefaciens cells are then co-cultivated with the preinduced seeds in presence of acetosyringone for 4 days at 24° C. in the dark. Thereafter, coleoptile from embryos are removed and washed, then put on a media supplemented with phosphinothricin for 3 weeks at 28° C. under a photoperiod rhythm of 16 hours. Then the growing calli were cut off from the embryos, and transferred to fresh media containing triacillin, phosphinothricin, L-proline and copper (II) sulfate.
# (§4) For each callusline and per Tembotrione concentration, 3 shoots, and randomly isolated from different callus pieces, were transferred to MS/2 with Tembotrione. As a general rule, transfer of the shoots from regeneration medium to MS/2 occurred 9 weeks after calli had been put on regeneration medium.
# (§5) Cultures were incubated at 26.5° C. (16 hrs. photoperiod) and evaluation of symptoms occurred 2 weeks later.
# (§6) New developing leaves of the shoots transferred have been scored on the basis of bleaching and categorized in 3 groups:
# (§7) Within the category ‘intermediate bleaching’ a distinction has been made between shoots having new leaves showing only very little bleaching symptoms and thus tending to green leaves, and shoots with new leaves almost completely bleached.
# [7] = tested on: rice shoots containing FMP22e; test: Bleaching of rice shoots on MS/2 with tembotrione; assay type: cell-based; details: 2 weeks
# Procedure: as §3, §4, §5, §6, §7
# [8] = tested on: rice plants containing FMP23e; test: Response to tembotrione in glasshouse trials, T0 rice; assay type: in vivo; details: 100 g AI/ha, 7 DAT
# Procedure: (§8) T0 rooted plantlets (either selected on phosphinothricin alone or on phosphinothricin supplemented with tembotrione) were transferred to soil in the glasshouse. Following an acclimation period, sufficiently grown plants were treated with the different HPPD inhibitor herbicides. As an example, T0 plants were sprayed with tembotrione of formulation type WP20 100 g Al/ha supplemented with ammonium sulfate and methyl ester raps oil. Seven days after the spray application, the symptoms due to the application of the herbicide were evaluated and compared the symptoms observed on wild type plants submitted to the same treatment.
# (§9) The plants were classified in three categories based on the phenotype developed in response to the herbicide seven days after the treatment.
# [9] = tested on: rice plants containing FMP22e; test: as above; assay type: in vivo; details: 100 g AI/ha, 7 DAT
# Procedure: as §8, §9
structure (smiles),measurement,setting,value
"CS(=O)(=O)c1ccc(C(=O)C2C(=O)CCCC2=O)c(Cl)c1COCC(F)(F)F [Tembotrione, 2-[2-chloro-4-(methylsulfonyl)-3-[(2,2,2,-tri-fluoroethoxy)methyl]benzoyl]-1,3-cyclo-hexanedione]",pI50,"[1]; 2 mM HPP, 3 minutes incubation",5.3
same,percentage of inhibition compared to activity in absence of the inhibitor,[1]; 5.0 × 10^−6 M inhibitor,36%
same,number of plants in category 0 (looking like untreated tobacco plants),[2],5
same,number of plants in category 3 (like treated wild type tobacco plants),[2],4
same,number of plants in category 0 (looking like untreated tobacco plants),[3],4
same,number of plants in category 1 (temporarily light bleaching),[3],2
same,number of plants in category 2 (permanent light to strong bleaching),[3],5
same,number of plants in category 3 (like treated wild type tobacco plants),[3],3
same,% injury,[4],0% and 5%
same,Ki,[5],15 nM
same,N° of shoots completely bleached,[6]; 1 μM,14
same,N° of shoots with intermediate bleaching,[6]; 1 μM,5
same,N° of shoots without bleaching,[6]; 1 μM,39
same,N° of shoots completely bleached,[6]; 5 μM,25
same,N° of shoots with intermediate bleaching,[6]; 5 μM,20
same,N° of shoots completely bleached,[7]; 1 μM,14
same,N° of shoots with intermediate bleaching,[7]; 1 μM,9
same,N° of shoots without bleaching,[7]; 1 μM,35
same,N° of shoots completely bleached,[7]; 5 μM,16
same,N° of shoots with intermediate bleaching,[7]; 5 μM,38
same,N° of shoots without bleaching,[7]; 5 μM,6
same,"Class II (number of plants, temporary light injuries, injury: 10-40%)",[8],10
same,"Class III (number of plants, strong injuries, injury: 41-100%)",[8],7
same,"Class II (number of plants, temporary light injuries, injury: 10-40%)",[9],19
